In US20050245399A1, “Pyrazole derivatives as herbicidal compositions containing them” (ISHIHARA SANGYO KAISHA, LTD., priority 2004, published 2005):

System: barnyardgrass (Echinochloa crus-galli L.), ECHCG
Assay: Test Example 2 post-emergence (foliage treatment) herbicidal activity, ECHCG
Assay type: in vivo
Settings: 63 g a.i./ha
Source text: (§1) Upland field soil was put into a 1/170,000 ha pot, and seeds of various plants were sown. Then, when the plants reached predetermined leaf stages {1. barnyardgrass (Echinochloa crus-galli L.), ECHCG: 1.1-2.1 leaf stage, 2. crabgrass (Digitaria sanguinalis L.), DIGSA: 1.0-2.0 leaf stage, 3. green foxtail (Setaria viridis L.), SETVI: 1.0-2.2 leaf stage, 4. redroot pigweed (Amaranthus retroflexus L.), AMARE: 0.1-1.5 leaf stage, 5. prickly sida (Sida spinosa L.), SIDSP: 0.1-0.6 leaf stage, 6. velvetleaf (Abutilon theophrasti), ABUTH: 0.1-0.6 leaf stage, 7. common cocklebur (Xanthium strumarium L.), XANST: 0.1 leaf stage, 8. rice (Oryza sativa L.), ORYSA; 1.0-2 leaf stage, 9. wheat (Triticum aestivum L.), TRZAX: 2.3-3.5 leaf stage, 10. corn (Zea mays L.), ZEAMXN 2.1-2.6 leaf stage, 11. soybean (Glycine max Merr.), GLXMA: primary leaf stage}, a wettable powder or emulsifiable concentrate having the compound of the present invention formulated in accordance with a usual formulation method, was weighed so that the active ingredient would be a predetermined amount, and diluted with water in an amount of 500 L/ha. To the diluted solution, 0.1% (v/v) of an agricultural spreader was added. The herbicide adjusted was applied by a small size sprayer for foliage treatment. On the 20th to 23rd day after the application of the herbicide, the growth of the respective plants was visually observed, and the herbicidal effects were evaluated by growth controlling degrees (%) ranging from 0 (equivalent to the untreated control) to 100 (complete kill), whereby the results shown in Table 5, were obtained. Compound Nos. in Table 5 correspond to Compound Nos. in Table 1 and 2 given hereinbefore.

SMILES | growth controlling degree, ECHCO [%]
COc1c(Cl)cc(F)c(-c2nn(C)c(OC(F)F)c2Cl)c1NC(=O)c1ccc(C)cc1 [Compound 1-261] | 100
COc1c(Cl)cc(F)c(-c2nn(C)c(OC(F)F)c2Cl)c1NC(=O)CC(C)(C)C [Compound 1-265] | 60

System: barnyardgrass (Echinochloa crus-galli L.): ECHCG
Assay: Test Example 1 pre-emergence herbicidal activity, ECHCG
Assay type: in vivo
Settings: Rate 63 g a.i./ha, visually observed 20th to 23rd day after application
Source text: (§2) Upland field soil was put into a 1/170,000 ha pot, and seeds of various plants {1. barnyardgrass (Echinochloa crus-galli L.): ECHCG, 2. crabgrass (Digitaria sanguinalis L.): DIGSA, 3. green foxtail (Setaria viridis L.): SETVI, 4. redroot pigweed (Amaranthus retroflexus L.): AMARE, 5. prickly sida (Sida spinosa L.): SEDSP, 6. velvetleaf (Abutilon theophrasti): ABUTH, 7. common cocklebur (Xanthium strumarium L.): XANST, 8. rice (Oryza sativa L.): ORYSA, 9. wheat (Triticum aestivum L.): TRZAX, 10. corn (Zea mays L.): ZEAMX, 11. soybean (Glycine max Merr.): GLXMA} were sown. Then, one day after the sowing, a wettable powder or emulsifiable concentrate having the compound of the present invention formulated in accordance with a usual formulation method, was weighed so that the active ingredient would be a predetermined amount and diluted with water in an amount of 500 L/ha. The herbicide adjusted was applied by a small size sprayer for preemergence treatment. On the 20th to 23rd day after the application of the herbicide, the growth of the respective plants was visually observed, and the herbicidal effects were evaluated by growth controlling degrees (%) ranging from 0 (equivalent to the untreated control) to 100 (complete kill), whereby the results shown in Table 4, were obtained. Compound Nos. in Table 4 correspond to Compound Nos. in Table 1 and 2 given hereinbefore.

SMILES | Pre-emergence Herbicidal Activity ECHCG (growth controlling degree) [%]
COc1c(Cl)cc(F)c(-c2nn(C)c(OC(F)F)c2Cl)c1NC(=O)c1ccc(C)cc1 [Compound 1-261] | 80
COc1c(Cl)cc(F)c(-c2nn(C)c(OC(F)F)c2Cl)c1NC(=O)CC(C)(C)C [Compound 1-265] | 20

System: green foxtail (Setaria viridis L.), SETVI
Assay: Test Example 2 post-emergence (foliage treatment) herbicidal activity, SETVI
Assay type: in vivo
Settings: 63 g a.i./ha
Source text: as §1

SMILES | growth controlling degree, SETVI [%]
COc1c(Cl)cc(F)c(-c2nn(C)c(OC(F)F)c2Cl)c1NC(=O)c1ccc(C)cc1 [Compound 1-261] | 100
COc1c(Cl)cc(F)c(-c2nn(C)c(OC(F)F)c2Cl)c1NC(=O)CC(C)(C)C [Compound 1-265] | 80

System: rice (Oryza sativa L.), ORYSA
Assay: Test Example 2 post-emergence (foliage treatment) herbicidal activity, ORYSA
Assay type: in vivo
Settings: 63 g a.i./ha
Source text: as §1

SMILES | growth controlling degree, ORYSA [%]
COc1c(Cl)cc(F)c(-c2nn(C)c(OC(F)F)c2Cl)c1NC(=O)c1ccc(C)cc1 [Compound 1-261] | 70
COc1c(Cl)cc(F)c(-c2nn(C)c(OC(F)F)c2Cl)c1NC(=O)CC(C)(C)C [Compound 1-265] | 40

System: green foxtail (Setaria viridis L.): SETVI
Assay: Test Example 1 pre-emergence herbicidal activity, SETVI
Assay type: in vivo
Settings: Rate 63 g a.i./ha, visually observed 20th to 23rd day after application
Source text: as §2

SMILES | Pre-emergence Herbicidal Activity SETVI (growth controlling degree) [%]
COc1c(Cl)cc(F)c(-c2nn(C)c(OC(F)F)c2Cl)c1NC(=O)c1ccc(C)cc1 [Compound 1-261] | 98
COc1c(Cl)cc(F)c(-c2nn(C)c(OC(F)F)c2Cl)c1NC(=O)CC(C)(C)C [Compound 1-265] | 70

System: prickly sida (Sida spinosa L.): SEDSP
Assay: Test Example 1 pre-emergence herbicidal activity, SIDSP
Assay type: in vivo
Settings: Rate 63 g a.i./ha, visually observed 20th to 23rd day after application
Source text: as §2

SMILES | Pre-emergence Herbicidal Activity SIDSP (growth controlling degree) [%]
COc1c(Cl)cc(F)c(-c2nn(C)c(OC(F)F)c2Cl)c1NC(=O)c1ccc(C)cc1 [Compound 1-261] | 100
COc1c(Cl)cc(F)c(-c2nn(C)c(OC(F)F)c2Cl)c1NC(=O)CC(C)(C)C [Compound 1-265] | 100

System: prickly sida (Sida spinosa L.), SIDSP
Assay: Test Example 2 post-emergence (foliage treatment) herbicidal activity, SIDSP
Assay type: in vivo
Settings: 63 g a.i./ha
Source text: as §1

SMILES | growth controlling degree, SIDSP [%]
COc1c(Cl)cc(F)c(-c2nn(C)c(OC(F)F)c2Cl)c1NC(=O)c1ccc(C)cc1 [Compound 1-261] | 100
COc1c(Cl)cc(F)c(-c2nn(C)c(OC(F)F)c2Cl)c1NC(=O)CC(C)(C)C [Compound 1-265] | 100

System: corn (Zea mays L.), ZEAMX
Assay: Test Example 2 post-emergence (foliage treatment) herbicidal activity, ZEAMX
Assay type: in vivo
Settings: 63 g a.i./ha
Source text: as §1

SMILES | growth controlling degree, ZEAMX [%]
COc1c(Cl)cc(F)c(-c2nn(C)c(OC(F)F)c2Cl)c1NC(=O)c1ccc(C)cc1 [Compound 1-261] | 40
COc1c(Cl)cc(F)c(-c2nn(C)c(OC(F)F)c2Cl)c1NC(=O)CC(C)(C)C [Compound 1-265] | 30

System: wheat (Triticum aestivum L.): TRZAX
Assay: Test Example 1 pre-emergence herbicidal activity, TRZAX
Assay type: in vivo
Settings: Rate 63 g a.i./ha, visually observed 20th to 23rd day after application
Source text: as §2

SMILES | Pre-emergence Herbicidal Activity TRZAX (growth controlling degree) [%]
COc1c(Cl)cc(F)c(-c2nn(C)c(OC(F)F)c2Cl)c1NC(=O)c1ccc(C)cc1 [Compound 1-261] | 10
COc1c(Cl)cc(F)c(-c2nn(C)c(OC(F)F)c2Cl)c1NC(=O)CC(C)(C)C [Compound 1-265] | 20

System: rice (Oryza sativa L.): ORYSA
Assay: Test Example 1 pre-emergence herbicidal activity, ORYSA
Assay type: in vivo
Settings: Rate 63 g a.i./ha, visually observed 20th to 23rd day after application
Source text: as §2

SMILES | Pre-emergence Herbicidal Activity ORYSA (growth controlling degree) [%]
COc1c(Cl)cc(F)c(-c2nn(C)c(OC(F)F)c2Cl)c1NC(=O)c1ccc(C)cc1 [Compound 1-261] | 40
COc1c(Cl)cc(F)c(-c2nn(C)c(OC(F)F)c2Cl)c1NC(=O)CC(C)(C)C [Compound 1-265] | 10

System: velvetleaf (Abutilon theophrasti), ABUTH
Assay: Test Example 2 post-emergence (foliage treatment) herbicidal activity, ABUTH
Assay type: in vivo
Settings: 63 g a.i./ha
Source text: as §1

SMILES | growth controlling degree, ABUTH [%]
COc1c(Cl)cc(F)c(-c2nn(C)c(OC(F)F)c2Cl)c1NC(=O)c1ccc(C)cc1 [Compound 1-261] | 100
COc1c(Cl)cc(F)c(-c2nn(C)c(OC(F)F)c2Cl)c1NC(=O)CC(C)(C)C [Compound 1-265] | 95

System: wheat (Triticum aestivum L.), TRZAX
Assay: Test Example 2 post-emergence (foliage treatment) herbicidal activity, TRZAX
Assay type: in vivo
Settings: 63 g a.i./ha
Source text: as §1

SMILES | growth controlling degree, TRZAX [%]
COc1c(Cl)cc(F)c(-c2nn(C)c(OC(F)F)c2Cl)c1NC(=O)c1ccc(C)cc1 [Compound 1-261] | 30
COc1c(Cl)cc(F)c(-c2nn(C)c(OC(F)F)c2Cl)c1NC(=O)CC(C)(C)C [Compound 1-265] | 30

System: soybean (Glycine max Merr.): GLXMA
Assay: Test Example 1 pre-emergence herbicidal activity, GLXMA
Assay type: in vivo
Settings: Rate 63 g a.i./ha, visually observed 20th to 23rd day after application
Source text: as §2

SMILES | Pre-emergence Herbicidal Activity GLXMA (growth controlling degree) [%]
COc1c(Cl)cc(F)c(-c2nn(C)c(OC(F)F)c2Cl)c1NC(=O)c1ccc(C)cc1 [Compound 1-261] | 0
COc1c(Cl)cc(F)c(-c2nn(C)c(OC(F)F)c2Cl)c1NC(=O)CC(C)(C)C [Compound 1-265] | 0

System: crabgrass (Digitaria sanguinalis L.): DIGSA
Assay: Test Example 1 pre-emergence herbicidal activity, DIGSA
Assay type: in vivo
Settings: Rate 63 g a.i./ha, visually observed 20th to 23rd day after application
Source text: as §2

SMILES | Pre-emergence Herbicidal Activity DIGSP (growth controlling degree) [%]
COc1c(Cl)cc(F)c(-c2nn(C)c(OC(F)F)c2Cl)c1NC(=O)c1ccc(C)cc1 [Compound 1-261] | 100
COc1c(Cl)cc(F)c(-c2nn(C)c(OC(F)F)c2Cl)c1NC(=O)CC(C)(C)C [Compound 1-265] | 100

System: velvetleaf (Abutilon theophrasti): ABUTH
Assay: Test Example 1 pre-emergence herbicidal activity, ABUTH
Assay type: in vivo
Settings: Rate 63 g a.i./ha, visually observed 20th to 23rd day after application
Source text: as §2

SMILES | Pre-emergence Herbicidal Activity ABUTH (growth controlling degree) [%]
COc1c(Cl)cc(F)c(-c2nn(C)c(OC(F)F)c2Cl)c1NC(=O)c1ccc(C)cc1 [Compound 1-261] | 80
COc1c(Cl)cc(F)c(-c2nn(C)c(OC(F)F)c2Cl)c1NC(=O)CC(C)(C)C [Compound 1-265] | 100

System: corn (Zea mays L.): ZEAMX
Assay: Test Example 1 pre-emergence herbicidal activity, ZEAMX
Assay type: in vivo
Settings: Rate 63 g a.i./ha, visually observed 20th to 23rd day after application
Source text: as §2

SMILES | Pre-emergence Herbicidal Activity ZEAMX (growth controlling degree) [%]
COc1c(Cl)cc(F)c(-c2nn(C)c(OC(F)F)c2Cl)c1NC(=O)c1ccc(C)cc1 [Compound 1-261] | 0
COc1c(Cl)cc(F)c(-c2nn(C)c(OC(F)F)c2Cl)c1NC(=O)CC(C)(C)C [Compound 1-265] | 0

System: redroot pigweed (Amaranthus retroflexus L.): AMARE
Assay: Test Example 1 pre-emergence herbicidal activity, AMARE
Assay type: in vivo
Settings: Rate 63 g a.i./ha, visually observed 20th to 23rd day after application
Source text: as §2

SMILES | Pre-emergence Herbicidal Activity AMARE (growth controlling degree) [%]
COc1c(Cl)cc(F)c(-c2nn(C)c(OC(F)F)c2Cl)c1NC(=O)c1ccc(C)cc1 [Compound 1-261] | 100
COc1c(Cl)cc(F)c(-c2nn(C)c(OC(F)F)c2Cl)c1NC(=O)CC(C)(C)C [Compound 1-265] | 100

System: soybean (Glycine max Merr.), GLXMA
Assay: Test Example 2 post-emergence (foliage treatment) herbicidal activity, GLXMA
Assay type: in vivo
Settings: 63 g a.i./ha
Source text: as §1

SMILES | growth controlling degree, GLXMA [%]
COc1c(Cl)cc(F)c(-c2nn(C)c(OC(F)F)c2Cl)c1NC(=O)c1ccc(C)cc1 [Compound 1-261] | 70
COc1c(Cl)cc(F)c(-c2nn(C)c(OC(F)F)c2Cl)c1NC(=O)CC(C)(C)C [Compound 1-265] | 50

System: crabgrass (Digitaria sanguinalis L.), DIGSA
Assay: Test Example 2 post-emergence (foliage treatment) herbicidal activity, DIGSA
Assay type: in vivo
Settings: 63 g a.i./ha
Source text: as §1

SMILES | growth controlling degree, DIGSP [%]
COc1c(Cl)cc(F)c(-c2nn(C)c(OC(F)F)c2Cl)c1NC(=O)c1ccc(C)cc1 [Compound 1-261] | 95
COc1c(Cl)cc(F)c(-c2nn(C)c(OC(F)F)c2Cl)c1NC(=O)CC(C)(C)C [Compound 1-265] | 60
